Measured values as given in PubChem BioAssay (NCI).
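Grown in 96-well plates, cells were treated for 48 hours with each compound at five concentrations. Insufficient inhibition: endpoint recorded as highest concentration tested. GI50: concentration for 50% inhibition of growth. TGI marks complete inhibition of growth.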

Key:
Assay in all cases: NCI tumour cell line growth inhibition, 48 h
HL-60(TB) leukemia = system: HL-60(TB) leukemia
HT29 colon = system: HT29 colon
KM12 colon = system: KM12 colon
MCF7 breast = system: MCF7 breast
MDA-MB-231 breast = system: MDA-MB-231 breast
NCI-H226 lung = system: NCI-H226 lung
SF-268 CNS = system: SF-268 CNS
SR leukemia = system: SR leukemia
T-47D breast = system: T-47D breast
U251 CNS = system: U251 CNS

SMILES	TGI (HL-60(TB) leukemia) [µM]	TGI (HT29 colon) [µM]	TGI (KM12 colon) [µM]	TGI (MCF7 breast) [µM]	TGI (MDA-MB-231 breast) [µM]	TGI (NCI-H226 lung) [µM]	TGI (SF-268 CNS) [µM]	TGI (SR leukemia) [µM]	TGI (T-47D breast) [µM]	TGI (U251 CNS) [µM]	GI50 (HL-60(TB) leukemia) [µM]	GI50 (HT29 colon) [µM]	GI50 (KM12 colon) [µM]	GI50 (MCF7 breast) [µM]	GI50 (NCI-H226 lung) [µM]	GI50 (SF-268 CNS) [µM]	GI50 (U251 CNS) [µM]	GI50 (MDA-MB-231 breast) [µM]	GI50 (SR leukemia) [µM]	GI50 (T-47D breast) [µM]
Cc1nc2sc3cccc(Cl)c3n2c(=O)c1N=Nc1ccc(Cl)cc1	> 100	> 100	> 100	> 100	> 100	> 100	> 100	> 100	> 100	> 100										
CCN(CC)CCNc1ccc2ncn3c4ccc(O)cc4c(=O)c1c23	11.6	7.06	10.6	12.6	14.1	1.33	13.6	2.27	30.7	2.75										
CCOC(=O)c1c2c(n(-c3ccc(C)cc3)c1C)-c1ccccc1C(=O)C2(C(=O)OCC)C(=O)OCC	18.6	> 84.3	> 100	76.6	> 100	> 94.7	> 91.9	> 4.64	64.5	> 100										
O=C(CSCC(=O)N/N=C/c1cccc(O)c1)N/N=C/c1cccc(O)c1	> 100	> 100	> 100	> 100	> 100	> 100	> 100	> 100	> 100	> 100										
COC(=O)c1cc2c(cc1Cl)Sc1nnc(Nc3ccccc3)n1S2(=O)=O	7.62	5.17	8.11	8.94	17.7	14.8	5.48	5.36	3.72	11.6										
O=S(=O)(/N=C(\NO)Nc1ccc(Cl)cc1)c1cc(C(F)(F)F)cc(C(F)(F)F)c1	79	34.3	41.1		37.2	35.9	50.7		67.2	31.4										
C=CCNC(=O)C(C)C1CCC2(C)C=CC(=O)C(C)=C2C1O (stereo not drawn)	> 100	> 100	> 100	> 100		> 100	> 100			> 100										
O=[N+]([O-])c1ccc(/C=N/Nc2nc3ccccc3[nH]2)o1	11.4	68	24.1		70.9	55.5	67.6	23.6	35.8	92.8										
CN1C(=O)CC(=O)N1/C(=C/c1ccccc1)c1ccccc1		> 100	> 100	> 100	79.4	> 100	> 100	> 100	> 100	> 100										
O=C1c2cc(O)c(O)cc2O[C@H](c2ccc(O)c(O)c2)[C@H]1O	> 100	> 100	> 100	> 100	> 100	> 100	> 100	> 100	> 100	> 100										
Oc1ccc(C(=C(Br)c2ccccc2)c2ccc(O)cc2)cc1	> 100	4.78	13.5	12.4	24	33	16.5		46.2	15.3										
CC(SC(=S)N1CCOCC1)C(=O)Nc1nnc(-c2ccc(Cl)cc2)o1 (stereo not drawn)		> 100		> 100	> 100	> 100	> 100	40.6	> 100	> 100										
C=C(C#N)C(=O)OCC(CC)CC.C=C(C#N)C(=O)OCC(CC)CC.CS(C)=O.CS(C)=O.Nc1c(N=Nc2ccc(-c3ccc(N=Nc4cc(S(=O)(=O)[O-])c5ccccc5c4N)cc3)cc2)cc(S(=O)(=O)[O-])c2ccccc12.[Pt+2]	23.6	> 69.7	> 100	> 100		> 74.1	59.1			> 100	15.8	27.2	46.6	24.2	36.8	24.9	46.7			
Cc1ccc(S(=O)(=O)OC2CC(C(C)(C)C)CCC2c2ccccc2)cc1 (stereo not drawn)	> 100	> 100	> 100	> 100	> 100	> 100		> 100	> 100	> 100										
COc1ccc(OC)c2sc(N3C(=O)/C(=C/c4cccc(Oc5ccccc5)c4)N=C3c3ccccc3)nc12	> 100	> 100	> 100	> 100	> 100		> 100		> 100	> 100										
COc1ccc2nc3c(c(N)c2c1)C1CCC3C1(C)C (stereo not drawn)	68.6	> 100	> 100	> 100	68.3	72	> 100	> 100	> 100	> 100										
O=C1c2cc3c(cc2-c2c1c1ccc(Cl)cc1c(=O)n2C[C@H](O)CO)OCO3	3.1	> 100	0.618	0.759	1.97	0.165	1.04	12.7	> 100	1.28	0.0331	0.0348	0.113	< 0.01	0.0296	0.0185	0.0198	0.32	< 0.01	0.0315
Cc1ccc(S(=O)(=O)N(CC(O)COc2ccccc2)c2c(F)cccc2F)cc1 (stereo not drawn)	93.1	36.3	56.3	30.7	43.8	71.1	37.4	61.4	20.1	29.1										
CSc1nncc(-c2cc3c(c(SC)n2)CCCC3)n1	> 100	> 100	> 100		> 100	> 100	> 100	> 100		> 100										
O=c1[nH]c2[nH]c(=S)[nH]c(=S)c2[nH]1	> 100	> 100	> 100		> 100	> 100	> 100	> 100	> 100	> 100										
Cc1cccc2sc(NC(=O)NS(=O)(=O)n3cnc4ccccc43)nc12	> 100	> 100	> 100	> 100	93.3	> 100	> 100		62.6	48.2										
O=C1C(Cl)N(c2ccccc2Cl)C1c1c[nH]c2ccccc12 (stereo not drawn)	> 100	> 100	> 100				> 100	> 100		> 100										
